Drawing on ChEMBL document CHEMBL1132835, “Solid-phase synthesis of 2,3-disubstituted indoles: discovery of a novel, high-affinity, selective h5-HT2A antagonist” (Bioorg Med Chem Lett, 2000), this text covers Ki for 1 molecule.

For this experiment, the target named is 5-hydroxytryptamine receptor 2A (Homo sapiens, UniProt P28223). Nature of the experiment: Ability to displace [3H]ketanserin from CHO cells expressing human 5-hydroxytryptamine 2A receptor was determined. The class given is cell-based.

As a reminder, the Ki is a measure of affinity in units of concentration, obtained from inhibition or displacement. Low readings indicate tighter binding, high ones weaker binding.

Structures are written as SMILES.

Sequence of 5-hydroxytryptamine receptor 2A (P28223 whole entry): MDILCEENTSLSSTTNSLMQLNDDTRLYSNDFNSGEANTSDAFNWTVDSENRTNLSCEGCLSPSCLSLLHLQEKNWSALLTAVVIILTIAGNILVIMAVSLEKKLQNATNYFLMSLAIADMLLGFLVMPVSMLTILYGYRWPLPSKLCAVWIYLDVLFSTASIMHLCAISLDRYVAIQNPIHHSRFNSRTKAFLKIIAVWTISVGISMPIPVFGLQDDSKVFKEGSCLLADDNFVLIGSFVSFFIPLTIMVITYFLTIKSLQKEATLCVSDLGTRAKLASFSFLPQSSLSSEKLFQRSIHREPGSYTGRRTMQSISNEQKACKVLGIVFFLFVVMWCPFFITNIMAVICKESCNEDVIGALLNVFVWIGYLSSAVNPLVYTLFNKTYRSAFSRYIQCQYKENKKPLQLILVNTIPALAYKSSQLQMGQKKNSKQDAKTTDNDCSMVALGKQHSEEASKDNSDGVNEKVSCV

For the molecule `c1ccc(-c2[nH]c3ccccc3c2CCN2CCCCC2)cc1`, affinity was put at a Ki of 2.7 nM.
